Test results reported in publication PMC6332226, “Potent PPARγ Ligands from Swietenia macrophylla Are Capable of Stimulating Glucose Uptake in Muscle Cells” (Molecules, 2015).

Columns and labels:
C2C12 muscle cells [1] = assay: GLUT4 translocation assay (immunofluorescence); assay type: cell-based; conditions: for GLUT4 translocation to the plasma membrane / time at which GLUT4 translocation occurs after treatment: 2 µM compound
Source text: (§1) Figure 6 The compounds affected the distribution of GLUT4 proteins and facilitated glucose uptake in the C2C12 muscle cells. The GLUT4 proteins were visualized via the green fluorescent FITC labeled-GLUT4 antibody. […] The white arrows show the presence of GLUT4 near the plasma membrane, and the red arrows show the presence of GLUT4 within the nucleus. The figures denote the time lapse (m = minutes) after treatment. The images were captured using a LSM710 laser scanning microscope with a 63X oil immersion objective (Carl Zeiss, Oberkochen, Germany); (F) The amount of 2-NBDG uptake in the cells after treatment 6OA, DS and Sw or insulin was quantified at OD 510 nm. The fold increase was plotted against the treated concentration of natural compounds. The symbol * denotes a significant difference at p < 0.05 compared with DMSO (Tukey’s test, n = 6), DMSO = 1.
The differentiated C2C12 muscle cells cultured in 8-well chamber slides were treated with DMSO, insulin and S. macrophylla compounds for 15, 30, 60 and 120 min in DMEM low glucose + 0.1% (w/v) BSA. The cells were then fixed with 4% (v/v) paraformaldehyde, washed with MAXwash^TM washing medium (Active Motif, Tokyo, Japan) and blocked with Maxblock^TM blocking medium (Active Motif). The cells were incubated with the GLUT4 antibody for 16 h at 4 °C and then with the fluorescent conjugated secondary antibody for 2 h at room temperature. 100 µL of Fluoroshield^TM with DAPI (Sigma-Aldrich, St. Louis, MO, USA) was added to each well and mounted with a cover slip for imaging.

recombinant PPARγ = molecular target: T1, recombinant PPARγ (Homo sapiens, UniProt P37231); assay: ELISA PPARγ-binding assay (ligand-dependent binding of PPARγ to p300 coactivator); conditions: highest binding; p300-coated plate, absorbance 405 nm
T1 construct: amino acid positions 107–477 for PPARγ; His tag (pET28a) (N); made in house; host or cells: E. coli BL21
T1 sequence (P37231 107-477 isoform P37231-2): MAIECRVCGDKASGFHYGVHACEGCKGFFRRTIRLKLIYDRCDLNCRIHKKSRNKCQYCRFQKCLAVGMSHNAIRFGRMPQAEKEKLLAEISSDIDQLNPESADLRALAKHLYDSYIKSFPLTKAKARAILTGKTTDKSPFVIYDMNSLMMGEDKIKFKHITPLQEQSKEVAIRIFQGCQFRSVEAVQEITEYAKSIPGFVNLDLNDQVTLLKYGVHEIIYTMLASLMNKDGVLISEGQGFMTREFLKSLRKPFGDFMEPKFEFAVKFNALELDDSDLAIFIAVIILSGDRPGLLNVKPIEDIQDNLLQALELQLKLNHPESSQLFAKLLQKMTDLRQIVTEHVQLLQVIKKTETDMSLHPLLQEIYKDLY
T1 sequence (Q09472 39-221 partner limits assumed): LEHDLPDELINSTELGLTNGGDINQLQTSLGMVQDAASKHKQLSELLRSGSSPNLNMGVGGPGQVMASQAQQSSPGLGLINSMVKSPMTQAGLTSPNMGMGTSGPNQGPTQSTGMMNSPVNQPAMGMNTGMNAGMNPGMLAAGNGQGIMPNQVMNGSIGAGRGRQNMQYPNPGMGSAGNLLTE
Procedure: The truncated p300 recombinant protein included a specific binding domain, LXXLL, for protein-protein interactions between p300 and PPARγ.
The ELISA binding assay used is based on the principle of binding between the ligand-dependent PPARγ and its coactivator. Briefly, 5 µg of purified recombinant p300, a PPARγ coactivator, was used to coat a 96-well microtitre plate in the presence of coating buffer (150 mM Na2CO3, 350 mM NaHCO3, pH 9.6). The plate was incubated for 2 h at room temperature. Nonspecific binding sites were blocked with 100 µL of blocking buffer [2% (w/v) BSA in 10 mM PBS, pH 7.2] for 2 h at room temperature. The recombinant PPARγ cell lysate was prepared by using the freeze/thaw cell lysis method [37]. […] These mixtures were added to the p300-coated 96-well plate, which was then incubated for 1 h at 37 °C. The presence of the PPARγ ligand led to the formation of a p300-PPARγ-ligand complex. The detection of this complex was performed through the addition of 100 µL of anti-PPARγ antibody (1:1000 dilutions) and incubation for 1 h at room temperature. Subsequently, 100 µL of the AP conjugated donkey anti-goat antibody (1:1000 dilutions) was added into each well, and the plates were at room temperature for 1 h. The pNPP substrate solution (100 µL) was added to each well and incubated for 1 h at room temperature in the dark. Finally, 2.0 N sulphuric acid (50 µL per well) was added to each well to stop the enzymatic reaction. The absorbance at 405 nm was detected with a microplate reader (SpectraMax M5, Molecular Devices, Sunnyvale, CA, USA). Throughout the procedures, the microtitre plate was washed three times with washing buffer [10 mM PBS, pH 7.2, containing 0.1% (v/v) Tween 20] after each incubation step.

[2] = system: 3T3-L1 preadipocyte cells; assay: Adipocyte differentiation assay, Oil Red O staining of lipid droplets; assay type: cell-based; conditions: for induction of 3T3-L1 differentiation into lipid-producing adipocytes: 2–50 µM, lower level than insulin and rosiglitazone; for ORO stained lipid droplets, fold higher than vehicle treated cells: compounds 2–50 µM; for first appearance of lipid droplets after treatment: 3T3-L1 cells
Procedure: Figure 4 The semi-quantification of lipid droplets produced by differentiated 3T3-L1 cells at day 7 after the compound treatment. The quantification was performed by dissolving the cells in isopropanol and measuring the absorbance read out at 510 nm. […] The symbol ** denotes a significant difference at p < 0.01 compared with DMSO (Tukey’s test, n = 3).
3T3-L1 and C2C12 cells were purchased from the American Type Culture Collection (Manassas, VA, USA). The 3T3-L1 and C2C12 cells were maintained in DMEM medium supplemented with 10% (v/v) bovine serum and 10% (v/v) fetal bovine serum (FBS), respectively. The differentiation of adipocytes was initiated two days after the cells reached confluence by adding 0.5 mM isobutyl methylxanthine (IBMX), 1 µM dexamethasone and 1 µg/mL insulin to DMEM containing 10% (v/v) FBS. Two days later, the differentiation medium was replaced by DMEM containing 10% (v/v) FBS and 1 µg/mL insulin. These differentiated cells were stabilized in DMEM + 10% (v/v) FBS for another 2 days. C2C12 myocytes were induced to differentiate by substituting 10% (v/v) FBS with 10% (v/v) horse serum once the cells reached confluence. Fresh differentiation medium was replaced every two days until the myotube formation was complete.
Adipocyte differentiation is one of the major cellular responses upon PPARγ activation. 3T3-L1 pre-adipocyte cells were seeded on 24-well plates at 5 × 10^4 cells per well. Two days after reaching confluence, the cells were triggered to differentiate by insulin (positive control), DMSO (negative control), TZD, and the three natural compounds isolated from S. macrophylla (6OA, DS and Sw). […] For visualization, lipid droplets were stained by Oil Red O (ORO). The trapped ORO between the lipid droplets was then dissolved in absolute isopropanol, and the absorbance of the dissolved ORO was semi-quantitatively measured by a SpectraMax M5 multi-detection microplate reader (Molecular Devices) at a wavelength of 510 nm.

[3] = system: differentiated 3T3-L1 adipocyte cells; assay: mRNA expression of PPARγ and adipogenic markers by quantitative RT-PCR; assay type: cell-based; conditions: 2 µM compound, 7 days; for PPARγ mRNA expression, fold elevation: vs DMSO; for expression levels of adipogenic markers (adiponectin, adipsin, PPARγ, GLUT4): 50 nM rosiglitazone or 1 μM insulin, normalized to β-actin, DMSO = 1
Procedure: Figure 5 The analysis of PPARγ and selected adipogenic gene expression in differentiated 3T3-L1 adipocyte cells with quantitative RT-PCR. […] The expression values were normalized against a housekeeping gene, β-actin.
For the gene expression study, mature 3T3-L1 adipocytes were lysed 7 days after the induction of cellular differentiation. The total RNA samples were prepared according to the manufacturer's protocol (TRIzol reagent, Invitrogen Life Technologies, Carlsbad, CA, USA). The mRNA expression of the target genes was measured by quantitative RT-PCR with an iCycler iQ5 PCR Thermal Cycler (Bio-Rad Laboratories, Hercules, CA, USA). The primers for the adipogenesis-related genes, adiponectin, adipsin, GLUT4 and PPARγ, were designed using Primer 3 software (Table 1). Real-time PCR was performed according to the manufacturer’s protocol (SYBR-Green One-Step Quantitative RT-PCR). Briefly, 5 ng of total RNA, 50 nM of each primer, iScript RT enzyme and the universal SYBR Green reaction mix (Bio-Rad Laboratories) were mixed well in a final volume of 30 µL. All the PCR reactions were performed as follows: 1 cycle of 50 °C for 2 min and 95 °C for 10 min, followed by 40 cycles of 95 °C for 15 s and 60 °C for 1 min. The PCR products were subjected to a melting-curve analysis. The expression levels were normalized against a housekeeping gene, β-actin, and the expression levels of the genes in the DMSO treated cells were designated as 1.

C2C12 muscle cells [4] = assay: Glucose uptake assay with 2-NBDG; assay type: cell-based; conditions: 2 µM compound, 60 min treatment
Source text: as §1
C2C12 cells were grown and differentiated in 96-well culture plates. The differentiated C2C12 muscle cells were treated with DMSO, insulin, and S. macrophylla compounds for 60 min in DMEM + 0.1% (w/v) BSA. After washing three times with Krebs-Ringer Phosphate H (KRPH) buffer + 0.1% (w/v) BSA, the cells were incubated with 100 μM 2-NBDG for 15 min. After washing three times with KRPH buffer + 0.1% (w/v) BSA, the uptake of 2-NBDG was observed under a fluorescence microscope, and the fluorescence of 2-NBDG was measured with a microplate reader (Perkin Elmer, Waltham, MA, USA).

diabetic rats = diabetic rats ref 5; cited from earlier work

Compound	GLUT4 translocation to the plasma membrane (C2C12 muscle cells [1])	time at which GLUT4 translocation occurs after treatment (C2C12 muscle cells [1])	fold increase of binding between PPARγ and coactivator compared to vehicle (DMSO) (recombinant PPARγ)	induction of 3T3-L1 differentiation into lipid-producing adipocytes [2]	ORO stained lipid droplets, fold higher than vehicle treated cells ([2]; day 7)	PPARγ mRNA expression, fold elevation [3]	expression levels of adipogenic markers (adiponectin, adipsin, PPARγ, GLUT4) [3]	glucose (2-NBDG) uptake (C2C12 muscle cells [4])	first appearance of lipid droplets after treatment [2]	elevated cholesterol and triglyceride levels (diabetic rats)	time at which GLUT4 translocation occurs after stimulation (C2C12 muscle cells [1]; 200 nM insulin)	ORO stained lipid droplets, fold higher than vehicle (DMSO) ([2]; 1 µM insulin, day 7)
COC(=O)C(OC(C)=O)C1C(C)(C)C(O)C2CC3=C4CC(=O)O[C@@H](c5ccoc5)[C@@]4(C)CCC3[C@@]1(C)C2=O (stereo partly shown) [6OA, 6-O-acetylswietenolide]	increase in GLUT4 translocation	15 min	50 fold	induce 3T3-L1 cells differentiation into lipid-producing adipocytes	1.3–1.6 fold	five- to six	increase	significant increase	–	–	–	–
COC(=O)C(OC(C)=O)C1C(C)(C)C(OC(C)=O)C2CC3=C4CC(=O)O[C@@H](c5ccoc5)[C@@]4(C)CCC3[C@@]1(C)C2=O (stereo partly shown) [DS, diacetyl swietenolide]	increase in GLUT4 translocation	≥ 60 min	38 fold	induce 3T3-L1 cells differentiation into lipid-producing adipocytes	1.3–1.6 fold	five- to six	increase	significant increase	–	–	–	–
CN(CCOc1ccc(CC2SC(=O)NC2=O)cc1)c1ccccn1 (stereo not shown) [Rosiglitazone, rosiglitazone, reference compound]	–	–	–	–	–	–	increase	–	5 days	–	–	–
C/C=C(\C)C(=O)OC1C2C=C3C(CC[C@@]4(C)C3CC(=O)O[C@H]4c3ccoc3)[C@@](C)(C2=O)C(C(O)C(=O)OC)C1(C)C (stereo partly shown) [Sw, swietenine]	increase in GLUT4 translocation	15 min	36 fold	induce 3T3-L1 cells differentiation into lipid-producing adipocytes	1.3–1.6 fold	five- to six	increase	significant increase	–	attenuate	–	–
Insulin: known adipocyte differentiation inducer, positive control [reference compound]	–	–	–	–	–	–	significantly increased	–	3 days	–	15 min	4.8 fold
